From ChEMBL document CHEMBL6092127, “Recent advancement in developing small molecular inhibitors targeting key kinase pathways against triple-negative breast cancer” (Bioorg Med Chem, 2024)
pIC50: −log10 of the molar value.

Tests used:
[1] = Antiproliferative activity against human EFM-192A cells assessed as reduction in cell growth measured for 24 hrs by MTT assay; type: functional, cell-based
MDA-MB-231 = assay: Antiproliferative activity against human MDA-MB-231 cells assessed as reduction in cell viability by MTT assay; type: functional, cell-based
[2] = biological target: Phosphatidylinositol 4,5-bisphosphate 3-kinase catalytic subunit alpha isoform (Homo sapiens, UniProt P42336); assay: Inhibition of PI3Kalpha (unknown origin)
MCF7 = assay: Antiproliferative activity against human MCF7 cells assessed as reduction in cell viability by MTT assay; type: functional, cell-based
[3] = biological target: Serine/threonine-protein kinase mTOR (Homo sapiens, UniProt P42345); assay: Inhibition of mTOR (unknown origin)
[4] = Growth inhibition of human Triple-negative breast cancer cell incubated for 24 hrs by MTT assay; type: functional

Phosphatidylinositol 4,5-bisphosphate 3-kinase catalytic subunit alpha isoform, sequence (P42336 whole entry, canonical isoform): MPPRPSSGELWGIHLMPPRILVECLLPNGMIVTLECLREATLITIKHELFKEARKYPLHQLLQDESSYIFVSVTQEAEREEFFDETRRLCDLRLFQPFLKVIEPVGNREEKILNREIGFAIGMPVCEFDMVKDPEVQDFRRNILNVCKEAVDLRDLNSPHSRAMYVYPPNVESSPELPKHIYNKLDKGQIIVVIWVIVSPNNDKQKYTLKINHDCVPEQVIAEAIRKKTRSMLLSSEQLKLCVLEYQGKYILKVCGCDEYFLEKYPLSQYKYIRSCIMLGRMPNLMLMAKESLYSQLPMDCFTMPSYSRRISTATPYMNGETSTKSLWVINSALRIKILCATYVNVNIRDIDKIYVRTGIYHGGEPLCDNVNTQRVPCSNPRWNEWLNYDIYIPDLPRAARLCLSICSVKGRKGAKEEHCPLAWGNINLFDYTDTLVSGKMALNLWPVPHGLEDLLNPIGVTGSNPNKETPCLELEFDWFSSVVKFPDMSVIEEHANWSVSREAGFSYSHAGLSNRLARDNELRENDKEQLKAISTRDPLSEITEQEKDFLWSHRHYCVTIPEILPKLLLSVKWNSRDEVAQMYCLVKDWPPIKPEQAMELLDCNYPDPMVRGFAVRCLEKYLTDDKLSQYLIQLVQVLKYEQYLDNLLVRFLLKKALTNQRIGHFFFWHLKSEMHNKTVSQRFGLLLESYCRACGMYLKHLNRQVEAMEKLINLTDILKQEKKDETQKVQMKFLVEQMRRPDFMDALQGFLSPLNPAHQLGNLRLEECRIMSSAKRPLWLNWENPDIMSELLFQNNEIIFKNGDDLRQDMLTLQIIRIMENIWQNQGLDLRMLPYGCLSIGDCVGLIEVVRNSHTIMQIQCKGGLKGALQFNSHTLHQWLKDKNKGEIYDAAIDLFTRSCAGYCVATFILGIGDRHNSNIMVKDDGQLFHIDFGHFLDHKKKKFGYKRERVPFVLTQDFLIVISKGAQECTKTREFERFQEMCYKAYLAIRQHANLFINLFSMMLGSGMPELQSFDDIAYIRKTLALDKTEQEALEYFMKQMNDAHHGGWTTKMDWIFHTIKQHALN

Q: With COc1ccc(CCc2cc(OC)c(OC)c(OC)c2)cc1O as the compound, how does the pIC50 [1] read?
A: 7.10

Q: With CS(=O)(=O)N1CCN(Cc2ccc(-c3nc(-c4ccc(NC(=O)Nc5cccnc5)cc4)nc(N4CCOCC4)n3)s2)CC1 as the compound, how does the pIC50 (MDA-MB-231) read?
A: 8.70

Q: And the pIC50 [2]?
A: 6.54

Q: And the pIC50 (MCF7)?
A: 8.70

Q: What about the pIC50 [3] of the same compound?
A: 7.22

Q: For N#Cc1ccc(CN2C(=O)c3cc4ccccc4n3C[C@H]2C(=O)NCc2ccccc2)cc1, which GI50 [4] is on record?
A: 2960 nM
